Experimental data: PubChem BioAssay (NCI)
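How tested: cells in 96-well plates exposed to compound for 48 hours at five concentrations. GI50: concentration for 50% inhibition of growth. Definition used: TGI = concentration required for complete inhibition of growth.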

Experiments:
Experiment in all cases: DTP human tumour cell line panel, 48 h
[1] = system: A498 renal
[2] = system: A549 NSCLC
[3] = system: HOP-62 NSCLC
[4] = system: KM12 colon
[5] = system: MALME-3M melanoma
[6] = system: NCI-H522 lung
[7] = system: SK-OV-3 ovarian
[8] = system: U251 CNS
[9] = system: UACC-257 melanoma
[10] = system: UO-31 renal

Row | Compound | TGI [1] [µM] | TGI [2] [µM] | TGI [3] [µM] | TGI [4] [µM] | TGI [5] [µM] | TGI [6] [µM] | TGI [7] [µM] | TGI [8] [µM] | TGI [9] [µM] | TGI [10] [µM] | GI50 [1] [µM] | GI50 [2] [µM] | GI50 [3] [µM] | GI50 [4] [µM] | GI50 [5] [µM] | GI50 [6] [µM] | GI50 [7] [µM] | GI50 [8] [µM] | GI50 [9] [µM] | GI50 [10] [µM]
1 | O=S(=O)(N1CCCCN(S(=O)(=O)C(F)(F)F)CCCN(S(=O)(=O)C(F)(F)F)CCCN(S(=O)(=O)C(F)(F)F)CCCCN(S(=O)(=O)C(F)(F)F)CCCN(S(=O)(=O)C(F)(F)F)CCC1)C(F)(F)F | > 100 | > 100 | > 100 | > 100 | 49.5 | > 100 | > 100 | 64.1 | > 100 | > 100 |  |  |  |  |  |  |  |  |  | 
2 | O=C(c1ccccc1)c1cc(-c2ccccc2)c(-c2ccccc2)[nH]c(=O)c1=O | > 100 | > 100 | > 100 | > 100 | > 100 | 74.4 | > 100 | > 100 | > 100 | > 100 |  |  |  |  |  |  |  |  |  | 
3 | Cc1cc(C)n(CN(Cn2nc(C)cc2C)c2ccc(N(Cn3nc(C)cc3C)Cn3nc(C)cc3C)cc2)n1 | 63.2 | 89.1 | 52.7 | 58.2 | 41.8 | 42.5 | 75.2 | 91.1 | 40.6 | 95.2 |  |  |  |  |  |  |  |  |  | 
4 | COC(=O)C(I(OS(=O)(=O)c1ccc(C)cc1)c1ccccc1)=P(c1ccccc1)(c1ccccc1)c1ccccc1 | 44.7 | 60.6 | 36.8 | 34.2 | 21.6 | 27.7 | 52.4 | 40.7 | 37.1 | 54.8 |  |  |  |  |  |  |  |  |  | 
5 | O=C1CSC(c2ccc(Cl)cc2)N1c1ccc(-n2c(-c3ccccc3)nc3ccccc3c2=O)cc1 (stereo not drawn) | > 100 | > 100 | > 100 | > 100 | > 100 | > 100 | > 100 | > 100 | > 100 | > 100 |  |  |  |  |  |  |  |  |  | 
6 | CN(C)CCCn1c2c(c3ccncc3c1=O)C(=O)c1ccccc1-2 | 20 | 38.6 | 20.6 | 11.5 | 2.5 | 11.9 | 65 | 15.3 | 5.22 | 21 | 2.15 | 1 | 0.862 | 0.641 | 0.978 | 1.61 | 12.1 | 0.757 | 1.68 | 0.546
7 | Cc1ccc(-c2cn3c(nc4ccccc43)c(C)n2)cc1 | > 77.5 | > 100 | > 100 | > 100 | > 67.8 | > 100 | 41.5 | > 87.7 | > 100 | > 30.1 |  |  |  |  |  |  |  |  |  | 
8 | COc1cc(OC)cc(N(C)Cc2cnc3nc(N)nc(N)c3c2C)c1 | > 100 | > 100 | > 36.1 | > 100 | > 100 | 43.6 | > 100 | > 100 | > 100 | > 100 |  |  |  |  |  |  |  |  |  | 
9 | CCCCCCc1cc2cc(C(=O)Nc3cccc(C(F)(F)F)c3)c(=N)oc2cc1O | 14 | 10.9 | 5.03 | 10.3 | 6.2 | 2.67 | 10.1 | 3.5 | 8.95 | > 29.2 |  |  |  |  |  |  |  |  |  | 
10 | COc1cc2c(oc(=O)c3c4oc([Si](C)(C)C)cc4cc(OC)c23)c2cccc(O)c12 | > 100 | > 100 | > 100 | > 100 | > 100 | > 100 | > 100 | > 100 | > 100 | > 100 |  |  |  |  |  |  |  |  |  | 
11 | Cc1[nH]c(=O)nc2c1C(=O)N(C(C)C)C(NC(C)C)S2 (stereo not drawn) | > 100 | > 100 | > 100 | > 100 | > 100 | > 100 | > 100 | > 100 | > 100 | > 100 |  |  |  |  |  |  |  |  |  | 
12 | N#Cc1c(C#N)c(-c2ccco2)n(/N=C/c2ccco2)c1N | > 100 | > 100 | > 100 | > 100 | > 100 | > 100 | > 100 | 60.3 | > 100 | > 100 |  |  |  |  |  |  |  |  |  | 
13 | CN(C)CCCNc1ccc2nnn3c4ccc([N+](=O)[O-])cc4c(=O)c1c23 | 6.33 | 3.06 | 8.51 | 4.53 | 14.5 | 17 | 16 | 5.16 | 16.7 | 9.5 |  |  |  |  |  |  |  |  |  | 
14 | Clc1ccc(CCn2ccc3ccccc32)c(Cl)c1 | > 100 | > 100 | > 100 | > 100 | > 100 | > 100 | > 100 | > 100 | > 100 | > 100 |  |  |  |  |  |  |  |  |  | 
15 | Fc1ccccc1N=c1oc2ccc(Br)cc2cc1-c1nc2ccccc2[nH]1 | 9.69 | 23.1 | 28.1 | > 54.9 | 14.9 | 6.82 | 32.9 | 20.1 | > 47.5 | 20.5 |  |  |  |  |  |  |  |  |  | 
16 | O=C1c2c(ccc3c2CCCC3)CC12Cc1ccccc1C2 | 77.5 | > 92.6 | > 100 | 59.9 | 34.9 | 56.7 | > 100 | > 100 | 54 | 68.5 |  |  |  |  |  |  |  |  |  | 
17 | COCN1C(=O)[C@@H]2C[C@@H](OC/C=C/CBr)CN2C(=O)c2ccccc21 | 66.4 | 35.5 | 54.6 | 63.5 | 35.3 | 25.9 | 88.5 | 74.8 | 37.6 | 40.5 |  |  |  |  |  |  |  |  |  | 

Row | Compound | TGI [1] [µM] | TGI [2] [µM] | TGI [3] [µM] | TGI [4] [µM] | TGI [5] [µM] | TGI [6] [µM] | TGI [7] [µM] | TGI [8] [µM] | TGI [9] [µM] | TGI [10] [µM] | GI50 [1] [µM] | GI50 [2] [µM] | GI50 [3] [µM] | GI50 [4] [µM] | GI50 [5] [µM] | GI50 [6] [µM] | GI50 [7] [µM] | GI50 [8] [µM] | GI50 [9] [µM] | GI50 [10] [µM]
18 | COc1c(-c2ccc3c(c2)OCO3)oc2cc3c(c(OC)c2c1=O)OCO3 | 50.3 | 54 | 34.9 | 65.1 | 67.6 | 52.6 | 35.7 | 36.7 | > 100 | 71 |  |  |  |  |  |  |  |  |  | 
19 | O=C1N[C@@H](c2c[nH]c3ccc(Br)cc23)C(=O)N[C@H]1c1c[nH]c2ccc(Br)cc12 | 18.5 | 33.8 | 27 | 18.6 | 28.8 | 24 | 31.1 | 21.9 | 26.8 | 45 |  |  |  |  |  |  |  |  |  | 
20 | CC(C)(C)C(=O)C(C#N)C(=O)C(C)(C)C | > 100 | > 100 | > 100 | > 100 | > 100 | > 100 | > 100 | > 100 | > 100 | > 100 |  |  |  |  |  |  |  |  |  | 
21 | COc1ccc(N=Nc2ccc3oc(=O)c(C(=O)Nc4ccc(OC)cc4)cc3c2)cc1 | 9.17 | > 100 | 30.3 | 33.5 | 52.7 | 75.6 | 83.5 | 30 | 73.9 | 62.4 |  |  |  |  |  |  |  |  |  | 
22 | CC(C)Oc1c(O)c2c3c(oc(=O)n3C=CC2c2ccccc2F)c1OC(C)C (stereo not drawn) | > 100 | > 100 | > 100 | > 100 | > 100 | > 100 | > 100 | > 100 | > 100 | > 100 |  |  |  |  |  |  |  |  |  | 
23 | Cc1ccc(-n2cc(-c3ccc(Cl)cc3)c3c(NNC(=S)NCc4ccccc4)ncnc32)cc1 | 82.1 | 41.1 | 85.4 | 20 | > 100 | 13.2 | 82 | 48.6 | 48 | 24.2 |  |  |  |  |  |  |  |  |  | 
24 | O=S(=O)(CC#CCS(=O)(=O)c1ccccc1)c1ccccc1 | 36.3 | 37.5 | 20.7 | 28.1 | 3.82 | 1.63 | 27.5 | 24.5 | 14.7 | 2.65 |  |  |  |  |  |  |  |  |  | 
25 | COc1cccc2c(NNc3ccc(Cl)cc3)c3ccc([N+](=O)[O-])cc3nc12 | 33.2 | 28.4 | 24.2 | > 100 | 22 | 21.1 | 32.5 | 31.2 | 55.2 | 37.9 |  |  |  |  |  |  |  |  |  | 
26 | C[N+](C)(C)CC(=O)N/N=C(\C(=O)Nc1ccc(Cl)cc1)C1C(=O)N(c2ccccc2)N=C1N (stereo not drawn) | > 100 | > 100 | > 100 | > 100 | > 100 | > 100 | > 100 | > 100 | > 100 | > 100 |  |  |  |  |  |  |  |  |  | 
27 | Clc1ccc(CCN2CCN(CCCc3ccccc3)CC2)cc1Cl | 30 | 29.9 | 35.8 | 32.1 | 33.8 | 36.7 | 35.1 | 31.9 | 31.3 | 24.7 |  |  |  |  |  |  |  |  |  | 
28 | O=C(CCc1nnc2s/c(=C\c3ccc(Cl)cc3Cl)c(=O)n12)Nc1cc(Cl)c(Cl)cc1Cl | > 100 | > 100 | > 100 | > 100 | > 100 | > 100 | > 100 | > 100 | > 100 | > 100 | > 100 | > 100 | > 100 | > 100 | > 100 |  | > 100 |  | > 100 | > 100
29 | Nc1nc(NC(=O)C2=NS(=O)(=O)c3cc(S(N)(=O)=O)c(Cl)cc3N2)n[nH]1 | > 100 | > 100 | > 100 | > 100 | > 100 | > 100 | > 100 | > 100 | > 100 | > 100 |  |  |  |  |  |  |  |  |  | 
30 | CC(C)(C)OC(=O)N1CC(COS(C)(=O)=O)c2ccc(O)cc21 (stereo not drawn) | 4.38 | 10.7 | 8.05 | 7.16 | 2.86 | 2.39 | 8.88 | 9.69 | 5.54 | 5.26 |  |  |  |  |  |  |  |  |  | 
31 | C=C(Cl)C(Cl)(CBr)CCC(Cl)C(C)C (stereo not drawn) | 14.4 | 27.1 | 2.94 | 6.11 | 28.4 | 15.8 | > 89.5 | 1.88 | 6.02 | 7.4 |  |  |  |  |  |  |  |  |  | 
32 | COc1cccc(C(=O)C(O)c2cccc(OC)c2OC)c1OC (stereo not drawn) | > 100 | > 100 | > 100 | > 100 | > 100 | > 100 | > 100 | > 100 | > 100 | > 100 |  |  |  |  |  |  |  |  |  | 
33 | CC(C)(C)C(=O)Cc1cc2c(cc1C(=O)O)S(=O)(=O)NC(C(C)(C)C)=C2 | > 100 | > 100 | > 100 | > 100 | > 100 | > 100 | > 100 | > 100 | > 100 | > 100 |  |  |  |  |  |  |  |  |  | 
